Data published in US20240383911A1, “AZAINDAZOLE MACROCYCLE COMPOUNDS AND USES THEREOF” (BROADENBIO CO., LTD, priority 2021, published 2024).

Experiments:
HPK1 = HPK1 (Homo sapiens, UniProt Q92918); experiment: HPK1 kinase activity inhibition test (ADP-Glo, luminescence); type: biochemical; conditions: 2 μM ATP, 5 nM HPK1, read-out: IC50, inhibitory effects on HPK1 kinase activity
Protocol: The kinase activity of HPK1 is manifested as activity of autophosphorylation and phosphorylation of downstream substrates. In the process of autophosphorylation, additional substrates are not required, and ATP is consumed to generate ADP. The amount of the product is measured by ADP-Glo reagent and luminescence method to reflect kinase activity.
(§1) Tested compounds: compounds prepared in the Examples of this invention.
Preparation of compound stock solution: dissolve the test compound in 100% DMSO to make a 10 mM stock solution;
Preparation of 4×Kinase Reaction Buffer:
Preparation of 2×HPK1 Kinase Solution:
Preparation of 4×ATP Mixture:
Dilute the stock solution of the test compound by 5 times with 100% DMSO, make a 4-fold equal dilution in a 96-well dilution plate, add 1 μL of the compound to 49 μL of kinase reaction buffer, and shake on a microplate shaker for 20 minutes. Transfer 2 μL of 2×HPK1 kinase solution to 384 reaction plate, add 1 μL of the test compound to the 384 reaction plate (Greiner, Cat #784075), centrifuge for 1 minute (1000 rpm/min), incubate at 25° C. for 10 minutes. Transfer 1 μL of the 4×ATP mixture to a 384 reaction plate, centrifuge for 1 minute (1000 rpm/min), and incubate at 25° C. for 60 minutes. In the reaction system, the final concentration of DMSO is 0.5%. Transfer 4 μL of ADP-Glo to a 384 reaction plate, centrifuge for 1 minute (1000 rpm/min), and incubate at 25° C. for 40 minutes. Transfer 8 μL detection solution to a 384 reaction plate, centrifuge for 1 minute (1000 rpm/min), and incubate at 25° C. for 40 minutes. The […] is read using a Biotek multi-function plate reader, and the IC50 (half inhibitory concentration) of the compound is obtained using a four-coefficient nonlinear fitting formula.

Human Jurkat-E6-1 cells = experiment: Detection of IL-2 production by Jurkat cells using ELISA; type: cell-based; conditions: anti-CD3/anti-CD28 stimulation 24 hours, read-out: Percentage of the amount of IL-2 secreted by compound treated vs DMSO-treated cells; for activity at 1 µM: tested compound 1.0 μM; for activity at 0.33 µM: tested compound 0.33 μM
Protocol: as §1
Human Jurkat-E6-1 cells were incubated with various concentrations of tested compounds for 30 minutes in a humidified incubator at 37° C. and 5% CO2. Cells were transferred to cell culture plates pre-coated with anti-human CD3 antibody, then soluble anti-human CD28 antibody was added, and cells were stimulated for 24 hours at 37° C. and 5% CO2 in a humidified incubator. The cell culture medium was collected after centrifugation, and was then transferred to a 96-well transparent microtiter plate (Thermo) pre-coated with anti-human IL-2 antibody, incubated at room temperature for 2 hours with gently shaking, washed with washing buffer for 4 times, and then followed the ELISA MAX Deluxe Set Human IL-2 (BioLegend) kit procedures, used a microplate reader (Molecular Device, i3X) to read the GD value at 450 nm. The best standard curve was selected by the microplate reader application software, and the corresponding concentration was calculated according to the GD value of the standard. Results are expressed as a percentage (%) of the amount of IL-2 secreted by compound-treated vs DMSO-treated cells.

HPK1, sequence (Q92918 whole entry): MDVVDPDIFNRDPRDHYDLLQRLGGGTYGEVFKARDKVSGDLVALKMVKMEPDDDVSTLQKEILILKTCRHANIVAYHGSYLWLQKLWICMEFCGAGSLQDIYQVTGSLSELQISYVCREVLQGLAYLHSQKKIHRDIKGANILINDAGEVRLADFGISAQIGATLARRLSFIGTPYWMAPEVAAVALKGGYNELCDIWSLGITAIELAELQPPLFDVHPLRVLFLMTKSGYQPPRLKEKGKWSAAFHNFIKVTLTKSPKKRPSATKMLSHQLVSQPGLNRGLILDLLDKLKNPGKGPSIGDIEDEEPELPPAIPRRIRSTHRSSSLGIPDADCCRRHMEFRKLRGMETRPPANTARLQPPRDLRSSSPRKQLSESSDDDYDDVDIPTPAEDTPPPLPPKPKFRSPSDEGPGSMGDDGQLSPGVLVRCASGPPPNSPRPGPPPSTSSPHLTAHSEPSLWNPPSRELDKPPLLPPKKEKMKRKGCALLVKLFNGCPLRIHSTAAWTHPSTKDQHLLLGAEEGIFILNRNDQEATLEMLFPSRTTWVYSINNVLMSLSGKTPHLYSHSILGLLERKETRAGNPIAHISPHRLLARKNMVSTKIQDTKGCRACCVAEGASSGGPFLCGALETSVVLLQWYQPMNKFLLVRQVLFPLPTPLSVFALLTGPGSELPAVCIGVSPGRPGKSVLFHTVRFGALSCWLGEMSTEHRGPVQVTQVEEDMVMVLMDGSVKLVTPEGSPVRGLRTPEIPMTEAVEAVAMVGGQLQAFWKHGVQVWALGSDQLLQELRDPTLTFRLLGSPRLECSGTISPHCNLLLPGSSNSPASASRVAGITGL

| IC50 (HPK1) | Structure (SMILES) | activity at 1 µM (Human Jurkat-E6-1 cells) | activity at 0.33 µM (Human Jurkat-E6-1 cells) |
| --- | --- | --- | --- |
| ≤ 5 nM | OC1CCN(c2ccc3cc2OCCCOCc2cccc(F)c2-c2cc4c-3n[nH]c4cn2)CC1 [Compound 107, 17-fluoro-5-(4-hydroxypiperidin-1-yl)-7,11-dioxa-20,23,24-triazapentacyclo[17.5.2.1^2,6.0^13,18.0^22,25]heptacosa-1(24),2,4,6(27),13(18),14,16,19,21,25-decaene] | 345% |  |
| ≤ 5 nM | CN(C)C1(C)CCN(c2ccc3cc2OCCCOc2cccc(F)c2-c2cc4c-3n[nH]c4cn2)CC1 [Compound 110, 1-{16-fluoro-7,11-dioxa-19,22,23-triazapentacyclo[16.5.2.1^2,6.0^12,17.0^21,24]hexacosa-1(23),2,4,6(26),12(17),13,15,18,20,24-decaen-5-yl}-N,N,4-trimethylpiperidin-4-amine] |  | 222% |
| ≤ 5 nM | CN(C)C1(C)CCN(c2ccc3cc2OCCCOCc2cccc(F)c2-c2cc4c-3n[nH]c4cn2)CC1 [Compound 111, 1-{17-fluoro-7,11-dioxa-20,23,24-triazapentacyclo[17.5.2.1^2,6.0^13,18.0^22,25]heptacosa-1(24),2,4,6(27),13(18),14,16,19,21,25-decaen-5-yl}-N,N,4-trimethylpiperidin-4-amine] |  | 388% |
| ≤ 5 nM | OC1CCN(C2CCN(c3ccc4cc3OCCCOCc3cccc(F)c3-c3cc5c-4n[nH]c5cn3)CC2)CC1 [Compound 112, 1′-{17-fluoro-7,11-dioxa-20,23,24-triazapentacyclo[17.5.2.1^2,6.0^13,18.0^22,25]heptacosa-1(24),2,4,6(27),13(18),14,16,19,21,25-decaen-5-yl}-[1,4'-bipiperidin]-4-ol] | 245% |  |
| ≤ 5 nM | CN1CCN(c2ccc3cc2OCC(O)COc2cccc(F)c2-c2cc4c-3n[nH]c4cn2)CC1 (stereo not drawn) [Compound 114, 16-fluoro-5-(4-methylpiperazin-1-yl)-7,11-dioxa-19,22,23-triazapentacyclo[16.5.2.1^2,6.0^12,17.0^21,24]hexacosa-1(23),2,4,6(26),12(17),13,15,18,20,24-decaen-9-ol] |  | 239% |
| 5 to 50 nM | CN1CCN(c2ccc3cc2OCCCOCc2cccc(F)c2-c2ncc4[nH]nc-3c4n2)CC1 [Compound 115, 17-fluoro-5-(4-methylpiperazin-1-yl)-7,11-dioxa-20,23,24,26-tetraazapentacyclo[17.5.2.1^2,6.0^13,18.0^22,25]heptacosa-1(24),2,4,6(27),13(18),14,16,19,21,25-decaene] | 263% |  |
| ≤ 5 nM | O[C@@H]1COc2cc(ccc2N2CCN3CCOC[C@H]3C2)-c2n[nH]c3cnc(cc23)-c2c(F)cccc2OC1 [Compound 120, (9S)-5-[(9aR)-octahydropyrazino[2,1-c][1,4]oxazin-8-yl]-16-fluoro-7,11-dioxa-19,22,23-triazapentacyclo[16.5.2.1^2,6.0^12,17.0^21,24]hexacosa-1(23),2,4,6(26),12(17),13,15,18,20,24-decaen-9-ol] | 494% |  |
| ≤ 5 nM | O=C1OC[C@@H]2CN(c3ccc4cc3OCCCOCc3cccc(F)c3-c3cc5c-4n[nH]c5cn3)CCN12 [Compound 124, (8aS)-7-{17-fluoro-7,11-dioxa-20,23,24-triazapentacyclo[17.5.2.1^2,6.0^13,18.0^22,25]heptacosa-1(24),2,4,6(27),13(18),14,16,19,21,25-decaen-5-yl}-hexahydro-1H-[1,3]oxazolo[3,4-a]pyrazin-3-one] | 630% |  |
| ≤ 5 nM | CN1C[C@H]2CN(c3ccc4cc3OCCCOCc3cccc(F)c3-c3cc5c-4n[nH]c5cn3)CCN2CC1=O [Compound 127, (9aR)-8-{17-fluoro-7,11-dioxa-20,23,24-triazapentacyclo[17.5.2.1^2,6.0^13,18.0^22,25]heptacosa-1(24),2,4,6(27),13(18),14,16,19,21,25-decaen-5-yl}-2-methyl-octahydro-1H-[1,4]diazino[1,2-a]pyrazin-3-one] |  | 475% |
| ≤ 5 nM | CN1C[C@@H]2CN(c3ccc4cc3OCCCOCc3cccc(F)c3-c3cc5c-4n[nH]c5cn3)CCN2CC1=O [Compound 128, (9aS)-8-{17-fluoro-7,11-dioxa-20,23,24-triazapentacyclo[17.5.2.1^2,6.0^13,18.0^22,25]heptacosa-1(24),2,4,6(27),13(18),14,16,19,21,25-decaen-5-yl}-2-methyl-octahydro-1H-[1,4]diazino[1,2-a]pyrazin-3-one] |  | 452% |

The remaining lines, values behind:

| Structure (SMILES) | IC50 (HPK1) | activity at 1 µM (Human Jurkat-E6-1 cells) | activity at 0.33 µM (Human Jurkat-E6-1 cells) |
| --- | --- | --- | --- |
| OC1CCN(c2ccc3cc2OCCCOc2cccc(F)c2-c2cc4c-3n[nH]c4cn2)CC1 [Compound 106, 16-fluoro-5-(4-hydroxypiperidin-1-yl)-7,11-dioxa-19,22,23-triazapentacyclo[16.5.2.1^2,6.0^12,17.0^21,24]hexacosa-1(23),2,4,6(26),12(17),13,15,18,20,24-decaene] | 5 to 50 nM | 504% |  |
| CN1CCN(C2CCN(c3ccc4cc3OCCCOc3cccc(F)c3-c3cc5c-4n[nH]c5cn3)CC2)CC1 [Compound 108, 16-fluoro-5-[4-(4-methylpiperazin-1-yl)piperidin-1-yl]-7,11-dioxa-19,22,23-triazapentacyclo[16.5.2.1^2,6.0^12,17.0^21,24]hexacosa-1(23),2,4,6(26),12(17),13,15,18,20,24-decaene] | ≤ 5 nM |  | 213% |
| CN1CCN(C2CCN(c3ccc4cc3OCCCOCc3cccc(F)c3-c3cc5c-4n[nH]c5cn3)CC2)CC1 [Compound 109, 17-fluoro-5-[4-(4-methylpiperazin-1-yl)piperidin-1-yl]-7,11-dioxa-20,23,24-triazapentacyclo[17.5.2.1^2,6.0^13,18.0^22,25]heptacosa-1(24),2,4,6(27),13(18),14,16,19,21,25-decaene] | ≤ 5 nM | 264% |  |
| OC1(CN2CCOCC2)CCN(c2ccc3cc2OCCCOc2cccc(F)c2-c2cc4c-3n[nH]c4cn2)CC1 [Compound 113, 1-{16-fluoro-7,11-dioxa-19,22,23-triazapentacyclo[16.5.2.1^2,6.0^12,17.0^21,24]hexacosa-1(23),2,4,6(26),12(17),13,15,18,20,24-decaen-5-yl}-4-[(morpholin-4-yl)methyl]piperidin-4-ol] | 5 to 50 nM |  | 265% |
| CN1C2CC1CN(c1ccc3cc1OCCCOCc1cccc(F)c1-c1cc4c-3n[nH]c4cn1)C2 [Compound 116, 17-fluoro-5-{6-methyl-3,6-diazabicyclo[3.1.1]heptan-3-yl}-7,11-dioxa-20,23,24-triazapentacyclo[17.5.2.1^2,6.0^13,18.0^22,25]heptacosa-1(24),2,4,6(27),13(18),14,16,19,21,25-decaene] | ≤ 5 nM |  | 450% |
| CN1C2CC1CN(c1ccc3cc1OCCCOc1cccc(F)c1-c1cc4c-3n[nH]c4cn1)C2 [Compound 117, 16-fluoro-5-{6-methyl-3,6-diazabicyclo[3.1.1]heptan-3-yl}-7,11-dioxa-19,22,23-triazapentacyclo[16.5.2.1^2,6.0^12,17.0^21,24]hexacosa-1(23),2,4,6(26),12(17),13,15,18,20,24-decaene] | ≤ 5 nM | 525% |  |
| CN1CCN(c2ccc3cc2OCCCOCc2cccc(F)c2-c2cc4c-3n[nH]c4cn2)C[C@@H]1CO [Compound 121, [(2R)-4-{17-fluoro-7,11-dioxa-20,23,24-triazapentacyclo[17.5.2.1^2,6.0^13,18.0^22,25]heptacosa-1(24),2,4,6(27),13(18),14,16,19,21,25-decaen-5-yl}-1-methylpiperazin-2-yl]methanol] | ≤ 5 nM |  | 467% |
| O=C1OC[C@H]2CN(c3ccc4cc3OCCCOCc3cccc(F)c3-c3cc5c-4n[nH]c5cn3)CCN12 [Compound 123, (8aR)-7-{17-fluoro-7,11-dioxa-20,23,24-triazapentacyclo[17.5.2.1^2,6.0^13,18.0^22,25]heptacosa-1(24),2,4,6(27),13(18),14,16,19,21,25-decaen-5-yl}-hexahydro-1H-[1,3]oxazolo[3,4-a]pyrazin-3-one] | ≤ 5 nM | 440% |  |
